Key:
[1] = design: method as in PMID 33532572; details: 48 h postinjection in mice ref 8a; cited from earlier work
[2] = Lipid stability in RBCs in mouse serum in vitro; format: in vitro ADME, mouse (BALB/c serum); details: 3 h; for loss in MFI of labeled RBCs: 37 °C
Method: The nature of lipid linker affects in vivo retention. […] To compare the stability of different lipids in vitro, we measured the fluorescence of labeled RBCs after incubation in mouse serum for 3 h.
Mouse RBC labeled with lipids were incubated in mouse serum at 37 °C for up to 3 h. Intact RBCs were removed by centrifugation at 3000 g for 10 min at room temperature. RBCs were washed three times in 1% BSA/PBS to remove the remaining serum, and the labeling (MFI) was determined by flow cytometry as described above. The supernatant was analyzed for fluoresce released from RBC by dotting 2 μL on 0.45 μm nitrocellulose membrane and scanning with a Bio-Rad gel imager for Cy3 fluorescence at 540 nm excitation/560 nm emission. For TLC, 10 parts of methanol were added to 1 part of serum, and the tubes were centrifuged at 500 g for 10 min to pellet the protein fraction. The methanol phase was carefully collected, applied on TLC Silica Gel 60 F254 (EMD Millipore), and separated on the mobile phase chloroform: methanol (9:1) with 0.1% trifluoroacetic acid. The plates were scanned with a Bio-Rad gel imager for Cy3 fluorescence.

[3] = In vivo circulation of labeled RBCs and lipid retention, flow cytometry, BALB/c mice; details: for half-life: both sexes, mouse, whole blood (RBCs), iv, mono- or biexponential decay, summary value, read-out: MFI half life, estimated (extrapolated) terminal (converted)
Method: Next, we investigated in vivo retention and longevity of modified RBCs. We used the lipids with the highest labeling efficiency (Figure 2C,D) for in vivo studies: DiI-C18, DiI-C18:2, DiI-C12, Cy3-C12, DiI-PEG3400Mtz, Cy3-DSPE, and Cy3-cholesterol. Labeled RBCs were injected intravenously in BALB/c mice and the circulating levels (percent positive RBCs) and the stability of the lipid (MFI of the labeled population) were analyzed by flow cytometry (Figure 3A). Representative dot plots for DiI-C18 and DiI-C18:2 (Figure 3B) show a distinct population of labeled RBCs at both 1 min (between 9% and 13% of total RBCs) and 3 weeks postinjection. We found differences between lipids in terms of both percent RBC and percent MFI (Figure 3C,D). […] DiI-C18 RBCs had ≈40 days circulation span and only about 33% decrease in MFI at Day 20. […] Cy3-cholesterol RBCs had ≈30 days circulation span, but MFI dropped below 35% at Day 22.
The University of Colorado Institutional Animal Care and Use Committee (IACUC) approved animal experiments (protocol 103 913(11)1D). Mice were treated according to regulations provided by the Office of Laboratory Animal Resources at the University of Colorado. BALB/c and NOD/LtSz-SCID IL2Rγc null (NSG) mice were bred in-house. Mice of 8–10 weeks age (males and females) were used for experiments. Mice were injected intravenously with ≈10^9 RBCs (each strain was injected with RBCs derived from the same strain). At different time intervals, ≈20 μL of blood were obtained with heparinated haematocrit capillary (ThermoFisher) via periorbital plexus. RBCs were resuspended at ≈0.5 million mL^−1 in 1%BSA/PBS and analyzed by Guava easyCyte HT flow cytometer (20 000 RBCs were counted after gating out platelets and leukocytes). The percentage of positive RBCs and mean fluorescence intensity (MFI) of labeled RBCs (if more than 1% of total RBCs) was determined using FlowJo software v.10 (BD Life Sciences, Ashland, OR). For pharmacokinetic analysis, the flow data were normalized to 100% injected dose (MFI and percent labeled RBCs at 1 min) and fit into mono or biexponential decay using the pharmacokinetic modeling software Boomer.[21]

[4] = test system: human RBCs; assay: Labeling of human RBCs with lipids, flow cytometry; format: cell-based; details: lipids at 25 μM, 1 h; for MFI of labeled human RBCs, fold higher than the rest of the lipids / percentage of labeled human RBCs (in words): flow cytometry
From the text: We acquired commercially available dialkyl indocarbocyanine lipids DiI-C18, DiI-C18:2, DiI-C16, DiI-C12 and synthesized additional headgroup derivatives of DiI-C18: DiI-amine, DiI-PEG5000, and DiI-PEG3400-methyltetrazine (Mtz). In addition, we prepared diacyl glycerol derivatives of Cy3: Cy3-C18, Cy3-C18:1, Cy3-C16, Cy3-C14, Cy3-C12, phospholipid derivative Cy3-distearoyl phosphatidylethanolamine (Cy3-DSPE), and Cy3-cholesterol. This library covers different lipid lengths, lipid types, and also headgroup-tail linkages. In addition, the library includes a limited number of headgroup derivatives relevant to drug delivery. Thus, PEGylated lipids have importance for erythrocyte PEGylation for blood camouflaging. Mtz is a click chemistry group that enables versatile modifications with biomolecules,[13] but also serves as a mimic of a small molecule payload (Mw 230 Da). To determine the labeling efficiency, we used fresh human RBCs from two healthy donors. RBCs were incubated with lipids at 25 μM for 1 h and washed and analyzed with flow cytometry for the percentage of labeled cells and mean fluorescence intensity (MFI). […] Select lipids were then used to label mouse RBCs. The data in Figure 2C,D show generally higher mouse RBC labeling efficiency (MFI and percent RBCs) than human RBCs. […] Finally, we checked the linearity of the Cy3 group signal when incorporated in RBCs.
Fresh human RBCs were obtained from discarded leukodepletion filters after processing sodium citrate anticoagulated donor blood at the Children’s Hospital Colorado Blood Donation Center. Institutional review board approval was not required for discarded material and anonymous samples. RBCs were eluted from leukodepletion filters by applying ACD buffer in the direction of the flow and were used within 2 h after blood collection. Sodium EDTA-anticoagulated mouse blood was collected from female or male BALB/c and NSG mice (8–10 weeks of age) via cardiac puncture, according to the animal protocol approved by the University of Colorado IACUC). Human RBCs were washed in ACD buffer and mouse RBC were washed in 1% BSA/PBS at room temperature at 3,000 g, total 3 times. Erythrocyte suspension (≈10^10/mL) was incubated with 25 μM lipids in ACD buffer (human RBCs) or 1% BSA/PBS (mouse RBCs) at 37 °C for 1 h and washed three times in ACD buffer or 1% BSA/PBS as described above. Labeling efficiency were determined by Guava easyCyte HT flow cytometer (Luminex Corp, Seattle, WA) as described later.

[5] = Organ biodistribution of labeled RBCs (NIR imaging, confocal microscopy of liver and spleen); details: Day 40 (DiI-C18 RBCs), Day 29 (DiI-PEG3400Mtz RBCs)
Method: To determine the location of the label in the clearance organs, we imaged freshly excised livers and spleens of BALB/c mice injected with DiI-C18 RBCs and DiI-PEG3400Mtz RBCs (Day 40 and Day 29, respectively) with confocal microscope.
When labeled RBCs reached <1% of total RBCs (usually 10% or less of the injected dose), mice were injected with FITC-lectin and Hoechst and sacrificed with carbon dioxide (CO2) followed by cardiac perfusion. Fresh livers and spleens were placed on glass slides and imaged with Nikon Eclipse AR1HD inverted confocal microscope with Plan Apo 10 objective as described.[18]

[6] = test system: mouse peritoneal macrophages; assay: Uptake of labeled RBCs by peritoneal macrophages; format: cell-based; details: 24 h incubation, fluorescent microscopy
Method: Fresh nonactivated macrophages were isolated and seeded in culture for 24 h in a 96-well culture-treated plate (Corning Inc.) as described.[19] On the next day, labeled RBCs were added (≈1 × 10^5 RBC/well) in triplicates, and macrophages were incubated for 24 h. In some experiments, PMF were prelabeled with 10 μM DiO for 2 h before addition of RBCs. After incubation, macrophages were washed with PBS 4 times to remove nonbound RBCs, fixed with 4% formalin, and stained with nuclear stain Hoechst. Cells were imaged under 100× magnification with Zeiss Axio Observer 5 epifluorescent microscope, and ≈7 microscopic fields were acquired. To verify RBC localization outside the cells, a Nikon Eclipse AR1HD inverted confocal microscope with 405, 488, 561, and 640 nm excitation lasers and corresponding emission filters was used. The percentage of DiI+ cells and rosette+ cells per field was determined manually and plotted with Prism.

[7] = test system: mouse RBCs; assay: Labeling of mouse RBCs with lipids, flow cytometry; format: cell-based, mouse (BALB/c); details: lipids at 25 μM, 1 h
From the text: We acquired commercially available dialkyl indocarbocyanine lipids DiI-C18, DiI-C18:2, DiI-C16, DiI-C12 and synthesized additional headgroup derivatives of DiI-C18: DiI-amine, DiI-PEG5000, and DiI-PEG3400-methyltetrazine (Mtz). In addition, we prepared diacyl glycerol derivatives of Cy3: Cy3-C18, Cy3-C18:1, Cy3-C16, Cy3-C14, Cy3-C12, phospholipid derivative Cy3-distearoyl phosphatidylethanolamine (Cy3-DSPE), and Cy3-cholesterol. This library covers different lipid lengths, lipid types, and also headgroup-tail linkages. In addition, the library includes a limited number of headgroup derivatives relevant to drug delivery. Thus, PEGylated lipids have importance for erythrocyte PEGylation for blood camouflaging. Mtz is a click chemistry group that enables versatile modifications with biomolecules,[13] but also serves as a mimic of a small molecule payload (Mw 230 Da). […] RBCs were incubated with lipids at 25 μM for 1 h and washed and analyzed with flow cytometry for the percentage of labeled cells and mean fluorescence intensity (MFI). […]
Fresh human RBCs were obtained from discarded leukodepletion filters after processing sodium citrate anticoagulated donor blood at the Children’s Hospital Colorado Blood Donation Center. […] Labeling efficiency were determined by Guava easyCyte HT flow cytometer (Luminex Corp, Seattle, WA) as described later.

[8] = design: species or system BALB/c mice; details: mouse
Method: Figure 6. Biodistribution and immune recognition of RBCs. A) RBCs labeled with DiR were injected in BALB/c mice and blood fluorescence was monitored with NIR scanner Li-COR Odyssey. […] D) Confocal microscopy images of fresh livers and spleens of mice injected with DiI-C18 and DiI-PEG3400Mtz (after in vivo labeling of blood vessels and nuclei with FITC-lectin and Hoechst). The lipid accumulates in extrasinusoidal cells in the spleen and predominantly in sinusoidal cells in the liver (i.e., endothelium and Kupffer cells). […] E) RBCs were incubated with fresh peritoneal macrophages for 24 h. […] F) Quantification of percent cells (per field) that contain intracellular DiI. G) Quantification of percent cells (per field) that contain DiI+ rosettes. P-value: ****0.0001; ***<0.001 2-sided t-test, alpha 0.05.

SMILES | loss in MFI of labeled RBCs [2] | half-life ([3]; BALB/c) | circulation and retention of labeled RBCs (in words) ([3]; i.v., BALB/c) | MFI of labeled human RBCs, fold higher than the rest of the lipids [4] | percentage of labeled human RBCs (in words) [4] | further results
CCCCCCCCCCCCCCCCN1/C(=C/C=C/C2=[N+](CCCCCCCCCCCCCCCC)c3ccccc3C2(C)C)C(C)(C)c2ccccc21 [DiI-C16] | – | – | – | 2–3 fold | – | –
CCCCCCCCCCCCCCCCCCN1C(=CC=CC=CC=CC2=[N+](CCCCCCCCCCCCCCCCCC)c3ccccc3C2(C)C)C(C)(C)c2ccccc21.[I-] [DiR-C18, 1,1′-Dioctadecyl-3,3,3′,3′-Tetramethylindotricarbocyanine Iodide] | – | – | – | – | – | in vivo life span of labeled RBCs [8]: over 30 days; terminal half life of labeled RBCs ([8]; in vivo): 175 h
CC(C)CCCC(C)C1CCC2C3CC=C4CC(OC(=O)CCCCC[N+]5=C(C=CC=C6N(C)c7ccccc7C6(C)C)C(C)(C)c6ccccc65)CCC4(C)C3CCC12C (stereo not drawn) [Cy3-cholesterol] | less than 15% | 300 h | longest circulation and retention | – | – | MFI of labeled RBCs, percent of initial ([3]; Day 22, 1 min postinjection = 100%): below 35%
CCCCCCCCCCCCCCCCCCN1/C(=C/C=C/C2=[N+](CCCCCCCCCCCCCCCCCC)c3ccc(CN)cc3C2(C)C)C(C)(C)c2ccccc21 [DiI-amine] | – | – | – | – | – | labeling efficiency of human RBCs, fold lower than the parent DiI-C18 [4]: ≈ 4 fold
CCCCCCCCCCCCCCCCCC(=O)OC[C@H](COP(=O)(O)OCCNC(=O)CCCCC[N+]1=C(/C=C/C=C2/N(C)c3ccccc3C2(C)C)C(C)(C)c2ccccc21)OC(=O)CCCCCCCCCCCCCCCCC [Cy3-DSPE, Cy3-distearoyl phosphatidylethanolamine] | over 60% | – | disappeared within a few days postinjection | 2–3 fold | highest percentage of labeled human RBCs | TLC analysis of serum supernatant [2]: presence of intact Cy3-DSPE along with some degradation products; fluorescence released in serum from labeled RBCs, relative to DiI-C18 RBCs [2]: five times more fluorescence released in serum; human RBC labeling efficiency [4]: 100%
CCCCCCCCCCCCCC(=O)OCC(CNC(=O)CCCCC[N+]1=C(/C=C/C=C2/N(C)c3ccccc3C2(C)C)C(C)(C)c2ccccc21)OC(=O)CCCCCCCCCCCCC (stereo not drawn) [Cy3-C14] | – | – | – | – | highest percentage of labeled human RBCs | –

The next lines start with results.

loss in MFI of labeled RBCs [2] | half-life ([3]; BALB/c) | SMILES | circulation and retention of labeled RBCs (in words) ([3]; i.v., BALB/c) | MFI of labeled human RBCs, fold higher than the rest of the lipids [4] | percentage of labeled human RBCs (in words) [4] | further results
less than 15% | > 1920 h | CCCCCCCCCCCCCCCCCCN1/C(=C/C=C/C2=[N+](CCCCCCCCCCCCCCCCCC)c3ccccc3C2(C)C)C(C)(C)c2ccccc21 [DiI-C18] | longest circulation and retention | 2–3 fold | – | lipid present in the RBC membrane [1]: up to 90%; decrease in MFI of labeled RBCs ([3]; Day 20, 1 min postinjection = 100%): about 33%; human RBC labeling efficiency [4]: 28%; location of Cy3 signal in liver and spleen, confocal microscopy [5]: predominant accumulation of Cy3 signal in extrasinusoidal spleen cells and some accumulation in the liver sinusoids; macrophages with intracellular Cy3 fluorescence [6]: mostly intracellular uptake
less than 15% | 72 h | CCCCCCCCCCCCN1/C(=C/C=C/C2=[N+](CCCCCCCCCCCC)c3ccccc3C2(C)C)C(C)(C)c2ccccc21 [DiI-C12] | – | 2–3 fold | highest percentage of labeled human RBCs | decrease in MFI of labeled RBCs (in words) ([3]; i.v., BALB/c): much faster decrease in MFI than DiI-C18 and Cy3-cholesterol; human RBC labeling efficiency (in words) [4]: highest efficiency; mouse RBC labeling efficiency (in words) [7]: highest efficiency
less than 15% | – | CCCCCCCCCCCC(=O)OCC(CNC(=O)CCCCC[N+]1=C(/C=C/C=C2/N(C)c3ccccc3C2(C)C)C(C)(C)c2ccccc21)OC(=O)CCCCCCCCCCC (stereo not drawn) [Cy3-C12] | disappeared within a few days postinjection | – | highest percentage of labeled human RBCs | drop in MFI of labeled RBCs ([3]; Day 3, 1 min postinjection = 100%): 85%

— PMC9797212, “Surface Modification of Erythrocytes with Lipid Anchors: Structure–Activity Relationship for Optimal Membrane Incorporation, in vivo Retention, and Immunocompatibility” (Advanced nanobiomed research, 2022)
